In patent US20120196334A1, “LIGF-TYPE ENZYMES FOR BIOCONVERSION OF LIGNIN-DERIVED COMPOUNDS” (priority 2010, published 2012):

B1: LigF: Sphingomonas paucimobilis beta-etherase LigF, positive control polypeptide (protein)
chain: MTLKLYSFGPGANSLKPLATLYEKGLEFEQVFVDPSKFEQHSDWFKKINPRGQVPALWHDGKVVTESTVICEYLEDVFPESGNSLRPADPFKRAEMRVWTKWVDEYFCWCVSTIGWAFGIKAIAQKMSDEEFEEHINKNVPIPEQQLKWRRARNGFPQEMLDEEFRKVGVSVARLEETLSKQDYLVDTGYSLADICNFAIANGLQRPGGFFGDYVNQEKTPGLCAWLDRINARPAIKEMFEKSKREDLLKRQNEKVA
B2: ligE1: Novosphingobium aromaticivorans putative beta-etherase, glutathione S-transferase-like polypeptide, GenBank ABD26841.1, expressed in E. coli (protein)
chain: MAANNTITFYDLALSTGATISPFVWATKYALKHKGFDLDVVPGGFTGILERTGGKTERLPAIVDDGEFVLDSWGIVEYLDAKYPDRPVLIPHESVAATLKALDNWFWNAAVGPWMFCFCQDYRDLSLPQDHEYVTHSREKMLGRKLEEVQAGREERLPKISAALEPLRAALAQHQWLGGSSPNYADYRIMGGILFTASVCKTPVLANDDPLRDWIERCLDLYGGLGRHPGLFPLFGLEQREGDPDLFNRAAGQGGIYKRNTGPESTRAETQRITEGMKK
B3: ligE: Sphingomonas paucimobilis beta-etherase LigE, positive control polypeptide (protein)
chain: MARNNTITLYDLQLESGCTISPYVWRTKYALKHKGFDIDIVPGGFTGILERTGGRSERVPVIVDDGEWVLDSWVIAEYLDEKYPDRPMLFEGPTQKNLMKFLDNWLWSTAVGPWFRCYILDYHDLSLPQDRDYVRWSREQWFLGGQRLEDVQAGREDRLPLVPPTLEPFRRILAETKWLGGDQPNFADYSALAVFLWTASVARTPPLTEDDPLRDWLDRGFDLFDGLGRHPGMNPLFGLKLREGDPEPFVRQTGPAGAGGQALNKGPQTTKMPPRVAEKAD
B4: LigF2: Novosphingobium aromaticivorans putative beta-etherase, glutathione S-transferase-like polypeptide LigF-2 (protein)
chain: MALKYYHAEPLANSLKSMVPLKEKGLAYESIYVDLHKFEQHQPWFTAINPEGQVPVLDHDGTIITHTTVINEYLEDAFPDAQPADAPLRPRDPVGAARMRYWNKFIDEHVMNYVSMHGWHRMVGVIARNIASGDFEKLLESIPLPDQRKKWATARSGFSEADLANATAKIEYALDKVEKQLGETKWLAGDTYTLADINFYSHCGAMVERMFPEMEVARRAPRLCEWRDRVAARPAVAEALKSEDRTAPGLRVWSGEVR
B5: ABD26530.1: Novosphingobium aromaticivorans putative beta-etherase polypeptide LigF-1 (protein)
chain: MVIPLGEDNTIMLKLYSFGPAANSMKPLLTVFEKGLDVEKHRLDPAKFEHHTDWFKAINPRGQVPALVDGDKVVTESTVICEYLEDEYPTEVALRPADSFGKAQMRIWTKWVDEYFCWCVSTIGWHRYVGNMVKSLSDAEFEEKVKAIPVIEQQVKWRRAREGFPQDMLDEEMRKIAYSVRKLDDHLADHEWLVPGQYTLADICNFAIANGMQFGFAELVNKQDTPHLVRWIEQINERPAVKQMFAQVELEKLGPRE
B6: ABD27309.1: Novosphingobium aromaticivorans putative beta-etherase polypeptide LigF-3 (protein)
chain: MDEVSLYHWEPNANSGKPMLALMEKGVPFSSHYIDMLQFDQHKPEYLAINPQGTIPAMTHNGQVLTESTAIMEYVNDRFDGPDLMPADAQDRWRVRWWMKFMDQWLGPSFSMIGWSVFVGPMVRQRDPAELAAAIDRIPLPERRTAWRKAINGDFSESEMAESRRRVGLGIAKLEEELGKRPYVGSNQYSLADINIFNSTYSLPISQPDLAGKDRTPNIMRWLKRVYTREAVKKTWAMGKTDLAHRYGLIMAEIEG

Tested on: not listed separately
Assay: in vitro biochemical assay for beta-etherase activity on fluorescent substrate MUAV (4MU formation)
Settings: E. coli cell extracts expressing the protein; 0.1 mM MUAV substrate
Source text: The model substrate synthesis 150 for use in the biochemical screening for selective activity can be outsourced through a contract research organization (CRO). The enzyme discovery effort can initially be focused on identifying potential beta-etherase candidate genes identified through bioinformatic methods. […] The fluorescent substrate α-O-(β-methylumbelliferyl) acetovanillone (MUAV), for example, can be used in in vitro assays to identify beta-etherase function (Acme Biosciences, Mt. View, Calif.). The formation of 4 methylumbelliferone (4MU) upon hydrolysis of the aryl ether bond can be monitored by fluorescence, for example, at λex=365 nm and λem=450 nm (or 460 nm).
The enzyme screening 155 is done to identify novel etherases 160. […] Expression of the beta-etherase genes can be done in 5 ml or 25 ml samples of the recombinant E. coli strains in LB medium using induction with IPTG. Following induction, and cell harvest, cell pellets can be lysed using the BPER (Invitrogen) cell lysis system. […] The formation of 4 methylumbelliferone (4MU) upon hydrolysis of the aryl ether bond in MUAV can be monitored by fluorescence at λex=365 nm and λem=460 nm, and can provide quantitative measurement of beta-etherase function. Cell extracts of E. coli transformed with the S. paucimobilis ligE and ligF genes can be the assay positive controls. Test or unknown samples can include, for example, E. coli strains expressing putative beta-etherase genes from N. aromaticovorans.
This example describes a method for gene expression in E. coli, as well as beta-etherase biochemical assays. Expression of known and putative beta-etherase genes was performed using 5 ml cultures of the recombinant E. coli strains described herein in Luria Broth medium by induction of gene expression using isopropylthiogalactoside (IPTG) to a final concentration of 0.1 mM. Following induction, and cell harvest, the cells were disrupted using either sonication or the BPER (Invitrogen) cell lysis system.
In vitro reactions were performed in a total volume of 200 ul and contained: 25 mM TrisHCl pH 7.5; 0.5 mM dithiothreitol; 1 mM glutathione; 0.05 mM or 0.1 mM MUAV; 10 ul of clarified cell extract used to initiate the reactions. Following incubation for 2.5 hours at room temperature, a 50 ul sample of the reactions was terminated using 150 uL of 300 mM glycine/NaOH buffer pH 9. The formation of 4 methylumbelliferone (4MU) upon hydrolysis of the aryl ether bond was monitored by the increase in fluorescence at λex=360 nm and λem=450 nm using a Spectramax UV/visible/fluorescent spectrophotometer.
The total protein concentrations of the cell lysates were determined using the BCA reagent system for protein quantification (Pierce).
Induction might be also performed using IPTG concentrations in the range of 0.01-1 mM. Cell disruption might be also performed using toluene permeabilization, French, pressure techniques, or using multiple freeze/thaw cycles in conjunction with lysozyme. Assay conditions might be varied to include TrisHCl at 10-150 mM concentrations and in the pH range of 6.5-8.5; 0-2 mM dithiothreitol; 0.05-2 mM glutathione; 0.01-5 mM MUAV substrate; 22-42° C. reaction temperatures. The biochemical assay might be performed as a fixed time point assay with reaction times ranging from 5 minutes-12 hours, or performed continuously without quenching with glycine/NaOH buffer to extract enzyme kinetic parameters.
For B1, the “total activity (beta-etherase)” value was 558 rfu/ug.
For B2, the “total activity (beta-etherase)” value was 529 rfu/ug.
For B3, the “total activity (beta-etherase)” value was 7 rfu/ug.
In the case of B4, the “total activity (beta-etherase)” value is reported as 1206 rfu/ug.

Same assay, conditions: MUAV substrate; compared with S. paucimobilis LigF
With B4 the “efficiency relative to S. paucimobilis LigF protein” value was “approximately 2 fold”.

Same assay, conditions: MUAV substrate; compared with S. paucimobilis ligE
For B2, the “efficiency relative to S. paucimobilis ligE beta-etherase” value was “approximately 75 fold”.

Same assay, conditions: recombinant polypeptide expressed in E. coli
For B5, the “beta-etherase activity on the MUAV substrate (in words)” value (shortened to “beta-etherase activity … (in words)”) was “beta-etherase activity”.
For B2, the “beta-etherase activity … (in words)” value was “beta-etherase activity”.
In the case of B6, the “beta-etherase activity … (in words)” value is reported as “beta-etherase activity”.
In the case of B4, the “beta-etherase activity … (in words)” value is reported as “beta-etherase activity”.

Tested on: Escherichia coli
Assay: not given
Settings: benzaldehyde derivatives; stated as demonstrated; cited from earlier work
In the case of `O=Cc1ccc(O)cc1O` [2,4-dihydroxybenzaldehyde], the “antibacterial activity against Escherichia coli” value is listed as “antibacterial activity”.
In the case of `O=Cc1cc(O)ccc1O` [2,5-dihydroxybenzaldehyde], the “antibacterial activity against Escherichia coli” value is listed as “antibacterial activity”.
In the case of `COc1ccc(O)c(C=O)c1` [2-hydroxy-5-methoxybenzaldehyde], the “antibacterial activity against Escherichia coli” value is given as “antibacterial activity”.
For `O=Cc1ccccc1O` [2-hydroxybenzaldehyde], the “antibacterial activity against Escherichia coli” value is listed as “antibacterial activity”.
For `O=Cc1c(O)cc(O)cc1O` [2,4,6-trihydroxybenzaldehyde], the “antibacterial activity against Escherichia coli” value is listed as “antibacterial activity”.
In the case of `O=Cc1cccc(O)c1O` [2,3-dihydroxybenzaldehyde], the “antibacterial activity against Escherichia coli” value is given as “antibacterial activity”.
In the case of `COc1cc(O)cc(OC)c1C=O` [4-hydroxy-2,6-dimethoxybenzaldehyde], the “antibacterial activity against Escherichia coli” value is listed as “antibacterial activity”.
For `COc1cccc(C=O)c1O` [2-hydroxy-3-methoxybenzaldehyde], the “antibacterial activity against Escherichia coli” value is listed as “antibacterial activity”.
For `O=Cc1ccc(O)c(O)c1O` [2,3,4-trihydroxybenzaldehyde], the “antibacterial activity against Escherichia coli” value is listed as “antibacterial activity”.

Same assay, conditions: stated as known; cited from earlier work
In the case of `O=Cc1ccc(CO)o1` [5-hydroxymethylfurfural], the “antimicrobial activity against Escherichia coli” value is given as “antimicrobial activity”.
In the case of `COc1cc(C=O)ccc1O` [vanillin], the “antimicrobial activity against Escherichia coli” value is given as “antimicrobial activity”.
For `COc1cc(C=O)cc(OC)c1O` [syringaldehyde], the “antimicrobial activity against Escherichia coli” value is given as “antimicrobial activity”.
For `O=Cc1ccc(O)cc1` [4-hydroxybenzaldehyde], the “antimicrobial activity against Escherichia coli” value is given as “antimicrobial activity”.
In the case of `O=Cc1ccco1` [furfural], the “antimicrobial activity against Escherichia coli” value is given as “antimicrobial activity”.

Tested on: Saccharomyces cerevisiae
Assay: not given
Settings: stated as background; cited from earlier work
In the case of `O=C(O)/C=C/c1cccc(O)c1` [m-coumaric acid], the “antifungal activities against the yeast Saccharomyces cerevisiae” value (“antifungal activities” below) is listed as “significant antifungal activities”.
In the case of `COc1ccc(C=O)cc1OC` [Veratraldehyde], the “antifungal activities” value is listed as “significant antifungal activities”.
For `O=C(O)/C=C/c1ccccc1O` [o-coumaric acid], the “antifungal activities” value is given as “significant antifungal activities”.
For `COc1cc(CCC(C)=O)ccc1O` [vanillylacetone], the “antifungal activities” value is listed as “significant antifungal activities”.
In the case of `O=C(O)C=Cc1ccccc1` [cinnamic acid], the “antifungal activities” value is listed as “significant antifungal activities”.
In the case of `COc1cc(C(=O)O)ccc1O` [vanillic acid], the “antifungal activities” value is listed as “significant antifungal activities”.
In the case of `O=C(O)/C=C/c1ccc(O)cc1` [p-coumaric acid], the “antifungal activities” value is given as “significant antifungal activities”.
